The values below come from patent US20260022143A1, “Cyclic Peptide Inhibitors of IL-23” (JANSSEN PHARMACEUTICA NV, priority 2022, published 2026).

Where a name gives a salt, the structure may show the parent alone. Positions of bridges follow the written chain, without caps; N, C: chain ends. Non-standard residues stand in square brackets, D forms with d. Residues, ends and D or L forms follow the SMILES beside them. *: point of attachment. Me3N+CH2CH2(OCH2CH2)4CO = C[N+](C)(C)CCOCCOCCOCCOCCC(=O)*; Me3N+(CH2)2O(CH2)2O(CH2)2CO = C[N+](C)(C)CCOCCOCCC(=O)*; CH2CH2OCH2CH2OCH2CH2NMe3+ = C[N+](C)(C)CCOCCOCC*; Trp(7-Me) = Cc1cccc2c(C[C@H](N)C(=O)O)c[nH]c12; Hexanoyl(6-NMe3+) = C[N+](C)(C)CCCCCC(=O)*; Dab(NMeAc) = CC(=O)N(C)CC[C@H](N)C(=O)O; 2Nal = N[C@@H](Cc1ccc2ccccc2c1)C(=O)O; AEF = NCCOc1ccc(C[C@H](N)C(=O)O)cc1; 3Pal = N[C@@H](Cc1cccnc1)C(=O)O; Lys(Me) = CNCCCC[C@H](N)C(=O)O; Pen = CC(C)(S)[C@H](N)C(=O)O; Thp = NC1(C(=O)O)CCOCC1; X3 = C[N+](C)(C)CCCCC*; Me2NCH2CH2 = CN(C)CC*; Tfa = O=C(C(F)(F)F)*; Sar = CNCC(=O)O

Data set [1] addresses T1, IL-23R (Homo sapiens, UniProt Q5VWK5).
T1 construct: host or cells: HEK293
T1 sequence (Q5VWK5 24-629): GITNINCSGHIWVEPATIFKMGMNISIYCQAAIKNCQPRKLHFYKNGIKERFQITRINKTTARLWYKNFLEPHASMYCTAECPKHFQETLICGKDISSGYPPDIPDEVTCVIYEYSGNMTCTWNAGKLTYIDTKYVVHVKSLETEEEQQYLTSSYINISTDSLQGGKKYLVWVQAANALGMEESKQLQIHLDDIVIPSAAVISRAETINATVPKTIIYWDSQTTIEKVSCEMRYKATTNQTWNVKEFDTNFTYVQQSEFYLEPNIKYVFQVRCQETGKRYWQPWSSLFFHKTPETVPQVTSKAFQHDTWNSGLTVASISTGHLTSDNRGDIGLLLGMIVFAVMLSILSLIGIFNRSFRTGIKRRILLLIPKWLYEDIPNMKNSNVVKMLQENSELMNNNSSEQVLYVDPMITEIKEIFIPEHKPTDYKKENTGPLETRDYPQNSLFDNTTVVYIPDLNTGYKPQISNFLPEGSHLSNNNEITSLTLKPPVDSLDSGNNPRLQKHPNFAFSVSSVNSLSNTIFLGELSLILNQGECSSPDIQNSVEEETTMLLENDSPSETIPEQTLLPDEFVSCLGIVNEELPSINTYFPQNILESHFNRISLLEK
Kind of data set: IL23R Reporter Assay. It is filed as cell-based. The settings on record: HEK293 cells containing IL-23R, IL-12RP1 and STAT-inducible firefly luciferase reporter; 10 ng/mL IL-23 (EC90); 5 h at 37° C.; read-out: IL23R Reporter Assay. In general terms: A reporter such as luciferase makes a cellular process visible.

Data set [2] can be described thus: Exposed Polar Surface Area (EPSA). It is filed as physicochemical. Particulars: SFC on Chirex 3014 column; sample 1 mM DMSO stock; read-out: EPSA. Summed up: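 EPSA, in Å^2, is read from SFC retention time through a linear relationship established with eight calibration standards. Separation uses a Chirex 3014 stationary phase, 35 °C, 14 MPa back pressure, and a 5–60% methanol/ammonium formate modifier gradient in CO2.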

Consider `CC(=O)N(C)CCCC[C@@H]1NC(=O)[C@H](Cc2c[nH]c3c(C)cccc23)NC(=O)[C@H]([C@@H](C)O)NC(=O)[C@H](CC(=O)N(C)C)NC(=O)[C@@H](NC(=O)CCOCCOCC[N+](C)(C)C)C(C)(C)SSC(C)(C)[C@@H](C(=O)N[C@@H](Cc2ccc(OCCCCC[N+](C)(C)C)cc2)C(=O)N[C@@H](Cc2ccc3ccccc3c2)C(=O)NC2(C(=O)N[C@@H](CCCCN(C)C(C)=O)C(=O)N[C@@H](CC(N)=O)C(=O)N[C@@H](Cc3cccnc3)C(=O)N(C)CC(=O)N(C)C)CCOCC2)NC1=O` [compound 484, cPEG3aCO-C(3)-N(N(Me)2)-T-7MeW-K(NMeAc)-Pen(3)-TMAPF-2Nal-THP-K(NMeAc)-N-3Pya-Sar-CON(Me)2] ({Me3N+(CH2)2O(CH2)2O(CH2)2CO}-[Pen]D(NMe2)T[Trp(7-Me)][Lys(Me)](Ac)[Pen]Y(X3)[2Nal][Thp][Lys(Me)](Ac)N[3Pal][Sar]-NMe2; disulfide 1-6), for which the IC50 in data set [1] amounted to 3.1 nM. For the same compound, in data set [2], the EPSA amounted to 163 A^2.

Turning to `CC(=O)NCCCC[C@@H]1NC(=O)[C@H](Cc2c[nH]c3c(-c4cccc(NC(C)=O)c4)cccc23)NC(=O)[C@H]([C@@H](C)O)NC(=O)[C@H](CC(N)=O)NC(=O)[C@@H](NC(C)=O)C(C)(C)SSC(C)(C)[C@@H](C(=O)N[C@@H](Cc2ccc(OCCCCC[N+](C)(C)C)cc2)C(=O)N[C@@H](Cc2ccc3ccccc3c2)C(=O)NC2(C(=O)N[C@@H](CCC(=O)O)C(=O)N[C@@H](CC(N)=O)C(=O)N[C@@H](Cc3cncc(C)c3)C(=O)N(C)CC(N)=O)CCOCC2)NC1=O` [compound 504, MeCO-Pen(3)-N-T-7(3NAcPh)W-K(Ac)-Pen(3)-TMAPF-2Nal-THP-E-N-5MePyridinAla-Sar-CONH2], in data set [1], the IC50 was found to be 8.6 nM. The EPSA in data set [2] came to 178 A^2.

As for `CC(=O)N(C)CC[C@H](NC(=O)C1(NC(=O)[C@H](Cc2ccc3ccccc3c2)NC(=O)[C@H](Cc2ccc(OCCN)cc2)NC(=O)[C@H]2NC(=O)[C@H](CCC(=O)N(C)C)NC(=O)[C@H](Cc3c[nH]c4c(C)cccc34)NC(=O)[C@H]([C@@H](C)O)NC(=O)[C@H](CC(=O)N(C)C)NC(=O)[C@@H](NC(=O)CCOCCOCCOCCOCC[N+](C)(C)C)C(C)(C)SSC2(C)C)CCOCC1)C(=O)N[C@@H](CC(N)=O)C(=O)N[C@@H](Cc1cccnc1)C(=O)N(C)CC(=O)N(C)C` [compound 173, cPEG5aCO-Pen(3)-N(N(Me)2)-T-7MeW-Q(N(Me)2)-Pen(3)-AEF-2Nal-THP-Dab(NMeAc)-N-3Pya-Sar-CON(Me)2] ({Me3N+CH2CH2(OCH2CH2)4CO}-[Pen]D(NMe2)T[Trp(7-Me)]E(NMe2)[Pen][AEF][2Nal][Thp][Dab(NMeAc)]N[3Pal][Sar]-NMe2; disulfide 1-6 (inferred)), in data set [1], the IC50 was 3.1 nM. Further, the EPSA in data set [2] came to 144 A^2.

Consider `CC(=O)N(C)CC[C@@H]1NC(=O)[C@H](Cc2c[nH]c3c(C)cccc23)NC(=O)[C@H]([C@@H](C)O)NC(=O)[C@H](CC(N)=O)NC(=O)[C@@H](NC(=O)C(F)(F)F)C(C)(C)SSC(C)(C)[C@@H](C(=O)N[C@@H](Cc2ccc(OCCN(C)C)cc2)C(=O)N[C@@H](Cc2ccc3ccccc3c2)C(=O)NC2(C(=O)N[C@@H](CCC(=O)N(C)C)C(=O)N[C@@H](CC(N)=O)C(=O)N[C@@H](Cc3cccnc3)C(=O)N(C)CC(N)=O)CCOCC2)NC1=O` [compound 71] (Tfa-[Pen]NT[Trp(7-Me)][Dab(NMeAc)][Pen]Y(Me2NCH2CH2)[2Nal][Thp]E(NMe2)N[3Pal][Sar]-NH2; disulfide 1-6 (inferred)), for which the IC50 in data set [1] worked out at 2.1 nM. Also, the EPSA in data set [2] was 146 A^2.

On to `Cc1cccc2c(C[C@@H]3NC(=O)[C@H]([C@@H](C)O)NC(=O)[C@H](CC(=O)N(C)C)NC(=O)[C@@H](NC(=O)CCCCC[N+](C)(C)C)C(C)(C)SSC(C)(C)[C@@H](C(=O)N[C@@H](Cc4ccc(OCCCCC[N+](C)(C)C)cc4)C(=O)N[C@@H](Cc4ccc5ccccc5c4)C(=O)NC4(C(=O)N[C@@H](CCC(=O)N(C)C)C(=O)N[C@@H](CC(N)=O)C(=O)N[C@@H](Cc5cccnc5)C(=O)N(C)CC(=O)N(C)C)CCOCC4)NC(=O)[C@H](CCC(=O)N(C)C)NC3=O)c[nH]c12` [compound 101, 5cpaCO-Pen(3)-N(N(Me)2)-T-7MeW-Q(N(Me)2)-Pen(3)-TMAPF-2Nal-THP-Q(N(Me)2)-N-3Pya-Sar-CON(Me)2] ({Hexanoyl(6-NMe3+)}-[Pen]D(NMe2)T[Trp(7-Me)]E(NMe2)[Pen]Y(X3)[2Nal][Thp]E(NMe2)N[3Pal][Sar]-NMe2; disulfide 1-6), for which, in data set [1], the IC50 amounted to 5.2 nM. Further, the EPSA in data set [2] turned out to be 145 A^2.

`CC(=O)NCCCC[C@@H]1NC(=O)[C@H](Cc2c[nH]c3c(C)cccc23)NC(=O)[C@H]([C@@H](C)O)NC(=O)[C@H](CC(N)=O)NC(=O)[C@@H](NC(C)=O)C(C)(C)SSC(C)(C)[C@@H](C(=O)N[C@@H](Cn2cc(CC[N+](C)(C)C)nn2)C(=O)N[C@@H](Cc2ccc3ccccc3c2)C(=O)NC2(C(=O)N[C@@H](CCCCNC(C)=O)C(=O)N[C@@H](CC(N)=O)C(=O)N[C@@H](Cc3cccnc3)C(=O)N(C)CC(N)=O)CCOCC2)NC1=O` [compound 253]: in data set [1], the IC50 stood at 40 nM. In data set [2], the EPSA was 146 A^2.

Consider `CC(=O)N(C)CCCC[C@@H]1NC(=O)[C@H](Cc2c[nH]c3c(C)cccc23)NC(=O)[C@H]([C@@H](C)O)NC(=O)[C@H](CC(=O)N(C)C)NC(=O)[C@@H](NC(=O)CCOCCOCC[N+](C)(C)C)C(C)(C)SSC(C)(C)[C@@H](C(=O)N[C@@H](Cc2ccc(OCCOCCOCC[N+](C)(C)C)cc2)C(=O)N[C@@H](Cc2ccc3ccccc3c2)C(=O)NC2(C(=O)N[C@@H](CC(C)C)C(=O)N[C@@H](CC(N)=O)C(=O)N[C@@H](Cc3cccnc3)C(=O)N(C)CC(=O)N(C)C)CCOCC2)NC1=O` [compound 467, cPEG3aCO-Pen(3)-N(N(Me)2)-T-7MeW-K(NMeAc)-Pen(3)-APEG3F-2Nal-THP-L-N-3Pya-Sar-CON(Me)2] ({Me3N+(CH2)2O(CH2)2O(CH2)2CO}-[Pen]D(NMe2)T[Trp(7-Me)][Lys(Me)](Ac)[Pen]Y(CH2CH2OCH2CH2OCH2CH2NMe3+)[2Nal][Thp]LN[3Pal][Sar]-NMe2; disulfide 1-6), for which, in data set [1], the IC50 stood at 1.2 nM. Further, the EPSA in data set [2] was found to be 154 A^2.

Regarding `CC(=O)N[C@H](COCCOCC[N+](C)(C)C)C(=O)N[C@@H]1C(=O)N[C@@H](CC(=O)N(C)C)C(=O)N[C@@H]([C@@H](C)O)C(=O)N[C@@H](Cc2c[nH]c3c(C)cccc23)C(=O)N[C@@H](CCCCN(C)C(C)=O)C(=O)N[C@H](C(=O)N[C@@H](Cc2ccc(OCCOCCOCC[N+](C)(C)C)cc2)C(=O)N[C@@H](Cc2ccc3ccccc3c2)C(=O)NC2(C(=O)N[C@@H](CCCCN(C)C(C)=O)C(=O)N[C@@H](CC(N)=O)C(=O)N[C@@H](Cc3cccnc3)C(=O)N(C)CC(=O)N(C)C)CCOCC2)C(C)(C)SSC1(C)C` [compound 232, MeCO-APEG2ser-Pen(3)-N(N(Me)2)-T-7MeW-K(NMeAc)-Pen(3)-APEG3F-2Nal-THP-K(NMeAc)-N-3Pya-Sar-CON(Me)2], in data set [1], the IC50 was 3.4 nM. Moreover, in data set [2], the EPSA was 140 A^2.
